Values quoted from earlier work in US12247053B2 (priority 2018, dated 2025).

Tested on: 2009 swine flu influenza A(H1N1)

Row | Compound | susceptibility of the virus
1 | NC12CC3CC(CC(C3)C1)C2 [amantadine] | resistant
2 | CCOC(=O)C1=C[C@@H](OC(CC)CC)[C@H](NC(C)=O)[C@@H](N)C1 [oseltamivir] | susceptible
3 | CC(=O)N[C@H]1[C@H]([C@H](O)[C@H](O)CO)OC(C(=O)O)=C[C@@H]1N=C(N)N [zanamivir] | susceptible
4 | CC(N)C12CC3CC(CC(C3)C1)C2 (stereo not shown) [rimantadine] | resistant
